Laboratory results reported in patent US20200055897A1, “MODIFIED PEPTOIDS” (Technion Research & Development Foundation Limited, priority 2017, published 2020).
Starred links: 1 amine or outer side, 2 acyl side, 3 side chain; linkers in the order of their positions; H or OH if unused. Non-standard residues stand in square brackets, D forms with d. Residues, ends and D or L forms follow the SMILES beside them. *: point of attachment. N(1S-cyclohexylethyl)Gly = C[C@H](NCC(=O)O)C1CCCCC1; Gly(N-CH2CH2C6H4-4Cl) = O=C(O)CNCCc1ccc(Cl)cc1; NMeGly(N-(2-F-benzyl)) = CN(CC(=O)*)Cc1ccccc1F; Acetyl(2-(piperazin-1-yl)) = O=C(CN1CCNCC1)*; Hydrazinoacetyl = O=C(CNN[*:1])[*:2]; Gly(Nα-NHCO2Et) = CCOC(=O)NNCC(=O)O; Nrpe = C[C@@H](NCC(=O)O)c1ccccc1; Nspe = C[C@H](NCC(=O)O)c1ccccc1; X1 = O=C(CN1CCN([*:1])CC1)[*:2]; Ethoxycarbonyl = CCOC(=O)*; Nphe = O=C(O)CNCc1ccccc1; X5 = NC(=O)CN1CCN(*)CC1; X3 = O=C(CN1CCCNCC1)*

Assay: General method for water solubility test (gradual addition of water to 1 mg peptoid until clear)
Assay type: physicochemical
Settings: not given
Protocol: 1 mg peptoid was placed in an Eppendorf container and water was added gradually (e.g., […] per addition) until a clear solution was obtained. The solubility test was repeated three times and average values are presented. The limit of the test was typically 2.0×10^2 mg/liter (i.e., 1 mg per 5 ml).
Water solubility tests were carried out by a gradual addition of 5 μl distilled water to 1 mg peptoid until a clear solution was obtained. This assay was repeated three times and results were averaged.
For `C[C@H](NCC(=O)N(CC(=O)N(CC(=O)N(CC(=O)N(CC(N)=O)[C@@H](C)C1CCCCC1)[C@@H](C)C1CCCCC1)[C@@H](C)C1CCCCC1)[C@@H](C)C1CCCCC1)C1CCCCC1` [Peptoid P10, (Nsch)5, reference compound], the solubility was < 0.2 mg/mL.
`C[C@@H](C1CCCCC1)N(CC(N)=O)C(=O)CN(C(=O)CN(C(=O)CN(C(=O)CN(C(=O)CN1CCN(C(=O)CN2CCNCC2)CC1)[C@@H](C)C1CCCCC1)[C@@H](C)C1CCCCC1)[C@@H](C)C1CCCCC1)[C@@H](C)C1CCCCC1` [Peptoid P19, (Nsch)5-(Npz)2] ({Acetyl(2-(piperazin-1-yl))}-[X1][N(1S-cyclohexylethyl)Gly][N(1S-cyclohexylethyl)Gly][N(1S-cyclohexylethyl)Gly][N(1S-cyclohexylethyl)Gly][N(1S-cyclohexylethyl)Gly]-NH2) gave a solubility of 7.52 mg/mL.
Compound `C[C@H](NCC(=O)N(CC(=O)N(CC(=O)N(CC(=O)N(CC(=O)N(CC(=O)N1CCN(CC(N)=O)CC1)[C@@H](C)c1ccccc1)[C@@H](C)c1ccccc1)[C@@H](C)c1ccccc1)[C@@H](C)c1ccccc1)[C@@H](C)c1ccccc1)c1ccccc1` [Peptoid P3, Npz-(Nspe)6] (H-[Nspe][Nspe][Nspe][Nspe][Nspe][Nspe]-X5) has a solubility of ~900 µM.
`C[C@@H](c1ccccc1)N1CC(=O)N(CC(N)=O)CCCN2CCN(CC2)CC(=O)N([C@@H](C)c2ccccc2)CC(=O)N([C@@H](C)c2ccccc2)CC(=O)N([C@@H](C)c2ccccc2)CC(=O)N([C@@H](C)c2ccccc2)CC(=O)N([C@@H](C)c2ccccc2)CC1=O` [Peptoid P4, Npl-(Nspe)6-Npz (cyclic)] gave a solubility of ~700 µM.
For `C[C@@H](C1CCCCC1)N(CC(N)=O)C(=O)CN(C(=O)CN(C(=O)CN(C(=O)CN(C(=O)CN1CCN(C(=O)CN2CCN(C(=O)CN3CCNCC3)CC2)CC1)[C@@H](C)C1CCCCC1)[C@@H](C)C1CCCCC1)[C@@H](C)C1CCCCC1)[C@@H](C)C1CCCCC1` [Peptoid P22, (Nsch)5-(Npz)3] ({Acetyl(2-(piperazin-1-yl))}-[X1][X1][N(1S-cyclohexylethyl)Gly][N(1S-cyclohexylethyl)Gly][N(1S-cyclohexylethyl)Gly][N(1S-cyclohexylethyl)Gly][N(1S-cyclohexylethyl)Gly]-NH2), the solubility was 73.5 mg/mL.
With `C[C@H](c1ccccc1)N(CCC(N)=O)C(=O)CCN(C(=O)CCN(C(=O)CCN(C(=O)CCN(C(=O)CCN[C@H](C)c1ccccc1)[C@H](C)c1ccccc1)[C@H](C)c1ccccc1)[C@H](C)c1ccccc1)[C@H](C)c1ccccc1` [Peptoid P24, reference compound] the solubility was < 0.2 mg/mL.
For `C[C@@H](C1CCCCC1)N(CC(N)=O)C(=O)CN(C(=O)CN(C(=O)CN(C(=O)CN(C(=O)CN1CCNCC1)[C@@H](C)C1CCCCC1)[C@@H](C)C1CCCCC1)[C@@H](C)C1CCCCC1)[C@@H](C)C1CCCCC1` [Peptoid P15, (Nsch)5-Npz], the solubility was < 0.2 mg/mL.
Work on `C[C@@H](C1CCCCC1)N(CC(=O)N(CCc1ccc(Cl)cc1)CC(=O)N(CC(=O)N(CC(=O)N(CC(=O)N1CCN(CC(=O)N2CCN(CC(=O)N3CCN(CC(N)=O)CC3)CC2)CC1)Cc1ccccc1)Cc1ccccc1)[C@@H](C)C1CCCCC1)C(=O)CN(C)Cc1ccccc1F` [Peptoid P23, (Npz)3-(Npm)2-Nsch-Ncpe-Nsch-Nfpm] ({NMeGly(N-(2-F-benzyl))}-[N(1S-cyclohexylethyl)Gly][Gly(N-CH2CH2C6H4-4Cl)][N(1S-cyclohexylethyl)Gly][Nphe][Nphe][X1][X1]-X5) yielded a solubility of 135 mg/mL.
With `C[C@@H](c1ccccc1)N(CC(N)=O)C(=O)CN(C(=O)CN(C(=O)CN(C(=O)CN(C(=O)CN(C(=O)CN1CCCNCC1)[C@@H](C)c1ccccc1)[C@@H](C)c1ccccc1)[C@@H](C)c1ccccc1)[C@@H](C)c1ccccc1)[C@@H](C)c1ccccc1` [Peptoid P7, (Nspe)6-Nhpz] (X3-[Nspe][Nspe][Nspe][Nspe][Nspe][Nspe]-NH2) the “Water solubility relative to that of P2” value was “about 50 times” and the solubility was 49.6 mg/mL.
For `C[C@H](NCC(=O)N(CC(=O)N(CC(=O)N(CC(=O)N1CCN(CC(N)=O)CC1)[C@@H](C)c1cccc2ccccc12)[C@@H](C)c1cccc2ccccc12)[C@@H](C)c1cccc2ccccc12)c1cccc2ccccc12` [Peptoid P13, Npz-(Ns1npe)4], the solubility was < 0.2 mg/mL.
Work on `C[C@H](c1ccccc1)N(CCC(N)=O)C(=O)CCN(C(=O)CCN(C(=O)CCN(C(=O)CCN(C(=O)CCN(C(=O)CN1CCN(C(=O)CN2CCNCC2)CC1)[C@H](C)c1ccccc1)[C@H](C)c1ccccc1)[C@H](C)c1ccccc1)[C@H](C)c1ccccc1)[C@H](C)c1ccccc1` [Peptoid P26] yielded a solubility of 103 mg/mL.
In the case of `CCOC(=O)NNCC(=O)N(CC(=O)N(CC(=O)N(CC(=O)N(CC(=O)N(CC(N)=O)[C@H](C)c1ccccc1)NC(=O)OCC)[C@H](C)c1ccccc1)NC(=O)OCC)[C@H](C)c1ccccc1` [Peptoid P28, reference compound] (Ethoxycarbonyl-[Hydrazinoacetyl][Nrpe][Gly(Nα-NHCO2Et)][Nrpe][Gly(Nα-NHCO2Et)][Nrpe]-NH2), the solubility is reported as < 0.2 mg/mL.
For `C[C@@H](C1CCCCC1)N(CC(N)=O)C(=O)CN(C(=O)CN(C(=O)CN(C(=O)CN(C(=O)CN1CCCNCC1)[C@@H](C)C1CCCCC1)[C@@H](C)C1CCCCC1)[C@@H](C)C1CCCCC1)[C@@H](C)C1CCCCC1` [Peptoid P16, (Nsch)5-Nhpz], the solubility was < 0.2 mg/mL.
For `CCOC(=O)NN(CC(=O)N(CC(N)=O)[C@H](C)c1ccccc1)C(=O)CN(C(=O)CN(NC(=O)OCC)C(=O)CN(C(=O)CN(NC(=O)OCC)C(=O)CN1CCN(C(=O)CN2CCNCC2)CC1)[C@H](C)c1ccccc1)[C@H](C)c1ccccc1` [Peptoid P30] ({Acetyl(2-(piperazin-1-yl))}-[X1][Gly(Nα-NHCO2Et)][Nrpe][Gly(Nα-NHCO2Et)][Nrpe][Gly(Nα-NHCO2Et)][Nrpe]-NH2), the solubility was 177 mg/mL.
Work on `C[C@@H](C1CCCCC1)N(CC(=O)N(CCc1ccc(Cl)cc1)CC(=O)N(CC(=O)N(CC(=O)N(CC(=O)N1CCN(CC(=O)N2CCN(CC(N)=O)CC2)CC1)Cc1ccccc1)Cc1ccccc1)[C@@H](C)C1CCCCC1)C(=O)CN(C)Cc1ccccc1F` [Peptoid P20, (Npz)2-(Npm)2-Nsch-Ncpe-Nsch-Nfpm] ({NMeGly(N-(2-F-benzyl))}-[N(1S-cyclohexylethyl)Gly][Gly(N-CH2CH2C6H4-4Cl)][N(1S-cyclohexylethyl)Gly][Nphe][Nphe][X1]-X5) yielded a solubility of 84.4 mg/mL.
For `C[C@@H](C1CCCCC1)N(CC(=O)N(CCc1ccc(Cl)cc1)CC(=O)N(CC(=O)N(CC(=O)N(CC(N)=O)Cc1ccccc1)Cc1ccccc1)[C@@H](C)C1CCCCC1)C(=O)CN(C)Cc1ccccc1F` [Peptoid P11, (Npm)2-Nsch-Ncpe-Nsch-Nfpm, reference compound] ({NMeGly(N-(2-F-benzyl))}-[N(1S-cyclohexylethyl)Gly][Gly(N-CH2CH2C6H4-4Cl)][N(1S-cyclohexylethyl)Gly][Nphe][Nphe]-NH2), the solubility was < 0.2 mg/mL.
For `C[C@H](NCC(=O)N(CC(=O)N(CC(=O)N(CC(N)=O)[C@@H](C)c1cccc2ccccc12)[C@@H](C)c1cccc2ccccc12)[C@@H](C)c1cccc2ccccc12)c1cccc2ccccc12` [Peptoid P9, (Ns1npe)4, reference compound], the solubility was < 0.2 mg/mL.
`CCOC(=O)NN(CC(=O)N(CC(N)=O)[C@H](C)c1ccccc1)C(=O)CN(C(=O)CN(NC(=O)OCC)C(=O)CN(C(=O)CN(NC(=O)OCC)C(=O)CN1CCNCC1)[C@H](C)c1ccccc1)[C@H](C)c1ccccc1` [Peptoid P29] ({Acetyl(2-(piperazin-1-yl))}-[Gly(Nα-NHCO2Et)][Nrpe][Gly(Nα-NHCO2Et)][Nrpe][Gly(Nα-NHCO2Et)][Nrpe]-NH2) showed a solubility of 50.6 mg/mL.
For `C[C@H](NCC(=O)N(CC(=O)N(CC(=O)N(CC(=O)N(CC(=O)N(CC(N)=O)[C@@H](C)c1ccccc1)[C@@H](C)c1ccccc1)[C@@H](C)c1ccccc1)[C@@H](C)c1ccccc1)[C@@H](C)c1ccccc1)c1ccccc1` [Peptoid P1, (Nspe)6, reference compound] (H-[Nspe][Nspe][Nspe][Nspe][Nspe][Nspe]-NH2), the solubility was < 0.2 mg/mL.
For `C[C@H](c1ccccc1)N(CCC(N)=O)C(=O)CCN(C(=O)CCN(C(=O)CCN(C(=O)CCN(C(=O)CCN(C(=O)CN1CCNCC1)[C@H](C)c1ccccc1)[C@H](C)c1ccccc1)[C@H](C)c1ccccc1)[C@H](C)c1ccccc1)[C@H](C)c1ccccc1` [Peptoid P25], the solubility was < 0.2 mg/mL.
For `C[C@@H](C1CCCCC1)N(CC(=O)N(CCc1ccc(Cl)cc1)CC(=O)N(CC(=O)N(CC(=O)N(CC(=O)N1CCN(CC(N)=O)CC1)Cc1ccccc1)Cc1ccccc1)[C@@H](C)C1CCCCC1)C(=O)CN(C)Cc1ccccc1F` [Peptoid P17, Npz-(Npm)2-Nsch-Ncpe-Nsch-Nfpm] ({NMeGly(N-(2-F-benzyl))}-[N(1S-cyclohexylethyl)Gly][Gly(N-CH2CH2C6H4-4Cl)][N(1S-cyclohexylethyl)Gly][Nphe][Nphe]-X5), the solubility was < 0.2 mg/mL.
In the case of `C[C@@H](c1cccc2ccccc12)N(CC(N)=O)C(=O)CN(C(=O)CN(C(=O)CN(C(=O)CN1CCNCC1)[C@@H](C)c1cccc2ccccc12)[C@@H](C)c1cccc2ccccc12)[C@@H](C)c1cccc2ccccc12` [Peptoid P12, (Ns1npe)4-Npz], the solubility is reported as < 0.2 mg/mL.

Same assay, conditions: pH 10.5
With `C[C@@H](c1ccccc1)N(CC(N)=O)C(=O)CN(C(=O)CN(C(=O)CN(C(=O)CN(C(=O)CN(C(=O)CN1CCN(C(=O)CN2CCN(C(=O)CN3CCNCC3)CC2)CC1)[C@@H](C)c1ccccc1)[C@@H](C)c1ccccc1)[C@@H](C)c1ccccc1)[C@@H](C)c1ccccc1)[C@@H](C)c1ccccc1` [Peptoid P6, (Nspe)6-(Npz)3] ({Acetyl(2-(piperazin-1-yl))}-[X1][X1][Nspe][Nspe][Nspe][Nspe][Nspe][Nspe]-NH2) the “Water solubility at pH 10.5 (in words)” value was “highly soluble” and the “Water solubility relative to that of P2 at pH 10.5” value was 106 times.

Same assay, conditions: water; average of three tests; limit of test 2.0×10^2 mg/liter; read-out: Water solubility
`C[C@H](c1ccccc1)N(CCC(N)=O)C(=O)CCN(C(=O)CCN(C(=O)CCN(C(=O)CCN(C(=O)CCN(C(=O)CN1CCN(C(=O)CN2CCN(C(=O)CN3CCNCC3)CC2)CC1)[C@H](C)c1ccccc1)[C@H](C)c1ccccc1)[C@H](C)c1ccccc1)[C@H](C)c1ccccc1)[C@H](C)c1ccccc1` [Peptoid P27] gave a solubility of 196 mg/mL.
In the case of `C[C@@H](c1ccccc1)N(CC(N)=O)C(=O)CN(C(=O)CN(C(=O)CN(C(=O)CN(C(=O)CN(C(=O)CN1CCN(C(=O)CN2CCN(C(=O)CN3CCNCC3)CC2)CC1)[C@@H](C)c1ccccc1)[C@@H](C)c1ccccc1)[C@@H](C)c1ccccc1)[C@@H](C)c1ccccc1)[C@@H](C)c1ccccc1` [Peptoid P6, (Nspe)6-(Npz)3] ({Acetyl(2-(piperazin-1-yl))}-[X1][X1][Nspe][Nspe][Nspe][Nspe][Nspe][Nspe]-NH2), the solubility is reported as 88.6 mg/mL.
